Source: ChEMBL document CHEMBL1201862, “PubChem BioAssay data set” (2004)
Activity calls are given as the source filed them.

Tests used:
[1] = off-target signal loss in HeLa-CEM21 co-culture – HeLa F-luc CTL cells, cherry-picked, counter-screen for HIV-1 Env fusion inhibitor project, dose response (AID 652040); format: functional, cell-based;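 note: potency for signal decrease marking cytotoxic or nonspecific inhibition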
[2] = inhibitors of HIV Env-driven cell fusion, dose response, cherry-pick (AID 652057); format: functional, cell-based
[3] = ZM109 Env clade C HIV-1 fusion inhibitors, dose response, HeLa effector, CEM target cells, luciferase, cherry-pick (AID 652058); format: functional, cell-based
[4] = inhibitors of clade B AD8 Env fusion, dose response, cell-based, cherry-pick (AID 652062); format: functional;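 note: luciferase signal from cell-cell fusion driven by HIV-1 clade B AD8 Env; potency is for inhibitors of fusion seen as a drop in luminescence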
Fatty acid synthase [5] = biological target: T1, Fatty acid synthase (Homo sapiens, UniProt P49327); test: FAS thioesterase domain inhibitors, dose response, biochemical, endpoint fluorescence intensity, uHTS hits (AID 624327); format: functional;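 note: fluorescence from hydrolysis of an O-methyl fluorescein acyl ester substrate by the enzyme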
T1 sequence (P49327 whole entry, the tested form may be a part): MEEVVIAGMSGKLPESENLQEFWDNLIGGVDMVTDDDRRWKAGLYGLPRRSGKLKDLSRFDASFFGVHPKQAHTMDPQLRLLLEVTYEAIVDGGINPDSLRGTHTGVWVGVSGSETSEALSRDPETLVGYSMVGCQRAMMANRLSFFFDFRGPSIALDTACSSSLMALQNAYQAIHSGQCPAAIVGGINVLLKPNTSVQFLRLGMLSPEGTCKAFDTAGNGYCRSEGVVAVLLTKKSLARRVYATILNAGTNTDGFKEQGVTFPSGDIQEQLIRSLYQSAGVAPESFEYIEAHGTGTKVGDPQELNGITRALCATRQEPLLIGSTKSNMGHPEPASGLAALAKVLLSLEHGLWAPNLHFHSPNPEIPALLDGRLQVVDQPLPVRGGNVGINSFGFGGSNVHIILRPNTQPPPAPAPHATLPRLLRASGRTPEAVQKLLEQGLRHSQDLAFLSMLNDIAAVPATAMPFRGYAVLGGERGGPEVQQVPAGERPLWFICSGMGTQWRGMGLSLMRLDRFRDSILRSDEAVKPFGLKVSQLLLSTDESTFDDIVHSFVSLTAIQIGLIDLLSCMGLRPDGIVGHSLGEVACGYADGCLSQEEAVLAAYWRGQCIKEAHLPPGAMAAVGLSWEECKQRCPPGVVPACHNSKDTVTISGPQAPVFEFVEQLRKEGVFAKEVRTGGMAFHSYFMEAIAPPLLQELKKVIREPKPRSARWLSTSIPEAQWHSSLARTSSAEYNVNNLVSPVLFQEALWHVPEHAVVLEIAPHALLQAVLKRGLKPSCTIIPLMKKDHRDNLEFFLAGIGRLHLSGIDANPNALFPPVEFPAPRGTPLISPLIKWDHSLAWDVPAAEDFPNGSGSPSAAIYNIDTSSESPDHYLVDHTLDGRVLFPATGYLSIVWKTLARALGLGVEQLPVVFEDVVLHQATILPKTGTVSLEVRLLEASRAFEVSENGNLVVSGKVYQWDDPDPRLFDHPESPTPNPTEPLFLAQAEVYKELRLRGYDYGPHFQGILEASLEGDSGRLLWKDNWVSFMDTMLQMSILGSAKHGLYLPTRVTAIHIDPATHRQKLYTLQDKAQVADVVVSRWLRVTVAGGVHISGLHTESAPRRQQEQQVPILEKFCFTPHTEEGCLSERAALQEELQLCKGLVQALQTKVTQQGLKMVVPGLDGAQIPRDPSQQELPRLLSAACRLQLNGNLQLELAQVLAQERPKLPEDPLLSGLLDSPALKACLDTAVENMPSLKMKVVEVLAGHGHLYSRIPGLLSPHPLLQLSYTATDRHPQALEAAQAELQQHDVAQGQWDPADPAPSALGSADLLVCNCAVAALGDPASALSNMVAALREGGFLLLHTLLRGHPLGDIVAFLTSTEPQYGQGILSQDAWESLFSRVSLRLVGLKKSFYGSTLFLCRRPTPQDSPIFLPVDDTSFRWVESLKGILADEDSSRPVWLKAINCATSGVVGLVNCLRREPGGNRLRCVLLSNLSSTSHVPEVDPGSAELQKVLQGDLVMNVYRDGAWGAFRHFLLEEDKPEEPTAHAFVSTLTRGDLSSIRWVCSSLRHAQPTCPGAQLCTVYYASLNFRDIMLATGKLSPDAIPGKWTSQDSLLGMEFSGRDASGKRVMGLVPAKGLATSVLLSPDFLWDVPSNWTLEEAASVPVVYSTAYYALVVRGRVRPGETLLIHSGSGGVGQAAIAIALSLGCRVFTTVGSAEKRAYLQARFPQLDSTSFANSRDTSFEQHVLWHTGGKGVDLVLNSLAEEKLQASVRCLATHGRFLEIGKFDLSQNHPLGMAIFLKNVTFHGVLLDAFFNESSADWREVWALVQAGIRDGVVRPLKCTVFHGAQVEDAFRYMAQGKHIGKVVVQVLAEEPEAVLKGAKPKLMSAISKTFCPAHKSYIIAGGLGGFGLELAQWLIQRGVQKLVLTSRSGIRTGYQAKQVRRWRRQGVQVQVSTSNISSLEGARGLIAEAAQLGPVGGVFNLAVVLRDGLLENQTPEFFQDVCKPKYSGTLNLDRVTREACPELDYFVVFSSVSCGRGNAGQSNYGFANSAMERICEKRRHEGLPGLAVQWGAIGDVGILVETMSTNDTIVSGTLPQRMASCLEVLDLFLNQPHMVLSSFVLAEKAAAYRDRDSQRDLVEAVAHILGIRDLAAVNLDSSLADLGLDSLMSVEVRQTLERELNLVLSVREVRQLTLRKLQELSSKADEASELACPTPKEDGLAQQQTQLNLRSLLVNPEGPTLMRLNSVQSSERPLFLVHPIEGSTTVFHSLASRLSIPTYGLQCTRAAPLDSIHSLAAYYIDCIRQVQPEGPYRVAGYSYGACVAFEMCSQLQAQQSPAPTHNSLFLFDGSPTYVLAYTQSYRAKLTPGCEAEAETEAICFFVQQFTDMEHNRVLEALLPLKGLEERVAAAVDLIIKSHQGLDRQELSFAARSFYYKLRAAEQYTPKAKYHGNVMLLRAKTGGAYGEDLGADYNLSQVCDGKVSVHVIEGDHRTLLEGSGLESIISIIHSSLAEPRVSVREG

Fatty acid synthase [6] = biological target: T1, Fatty acid synthase; test: FAS thioesterase domain inhibitors, dose response, biochemical, kinetic fluorescence intensity (AID 624326); format: functional;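 note: rate of fluorescence rise from hydrolysis of a fluorogenic O-methyl fluorescein ester substrate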
[7] = biological target: Heat shock protein HSP 90-alpha (Homo sapiens, UniProt P07900); format: functional, organism-based
[8] = biological target: T2, Small ubiquitin-related modifier 1 (Homo sapiens, UniProt P63165); test: inhibitors of SUMO1 peptide binding, dose response, biochemical, fluorescence polarization, uHTS hits (AID 624382); format: functional; conditions: read-out: IC50_Mean
T2 sequence (P63165 whole entry): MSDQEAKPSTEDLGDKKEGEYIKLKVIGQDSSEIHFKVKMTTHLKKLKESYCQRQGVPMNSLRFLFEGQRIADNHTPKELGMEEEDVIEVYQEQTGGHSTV

[9] = biological target: T2, Small ubiquitin-related modifier 1; test: inhibitors of SUMO1 partner interactions, dose response, biochemical, FRET (AID 624383); format: functional; conditions: read-out: IC50_Mean
[10] = HEp-2 cell cytotoxicity, dose response, cytotoxicity control for RSV inhibitor project, HTS (AID 2410); format: functional; conditions: human respiratory syncytial virus
Vero [11] = test: cells; format: functional, cell-based; conditions: Chlorocebus sabaeus
Vero [12] = test: cells; format: functional; conditions: Chlorocebus sabaeus
[13] = biological target: T3, Microphthalmia-associated transcription factor (Homo sapiens, UniProt O75030); test: TRPM1 promoter luciferase signal decrease, dose response, MITF inhibitor project, cell-based, SK-MEL-5, cherry-picked, set 3 (AID 493073); format: functional
T3 sequence (O75030 whole entry): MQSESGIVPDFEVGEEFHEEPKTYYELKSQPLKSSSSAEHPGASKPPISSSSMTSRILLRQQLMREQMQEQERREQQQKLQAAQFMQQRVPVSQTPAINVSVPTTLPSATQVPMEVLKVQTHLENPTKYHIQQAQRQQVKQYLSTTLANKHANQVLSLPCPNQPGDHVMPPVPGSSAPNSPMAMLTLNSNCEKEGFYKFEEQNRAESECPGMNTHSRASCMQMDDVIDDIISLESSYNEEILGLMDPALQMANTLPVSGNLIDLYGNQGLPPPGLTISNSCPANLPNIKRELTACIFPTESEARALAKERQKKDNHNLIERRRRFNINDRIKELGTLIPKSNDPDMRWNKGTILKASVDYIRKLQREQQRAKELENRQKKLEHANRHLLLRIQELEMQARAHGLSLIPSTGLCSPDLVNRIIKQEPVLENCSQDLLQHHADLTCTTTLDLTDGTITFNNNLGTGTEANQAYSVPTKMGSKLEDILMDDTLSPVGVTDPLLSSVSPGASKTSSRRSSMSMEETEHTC

[14] = biological target: T4, Carboxy-terminal domain RNA polymerase II polypeptide A small phosphatase 1 (Homo sapiens, UniProt Q9GZU7); test: inhibitors of CTDSP1, concentration-response testing, biochemical assay, absorbance-based, actives from ultra-high-throughput screening (AID 540297); format: functional
T4 sequence (Q9GZU7 whole entry): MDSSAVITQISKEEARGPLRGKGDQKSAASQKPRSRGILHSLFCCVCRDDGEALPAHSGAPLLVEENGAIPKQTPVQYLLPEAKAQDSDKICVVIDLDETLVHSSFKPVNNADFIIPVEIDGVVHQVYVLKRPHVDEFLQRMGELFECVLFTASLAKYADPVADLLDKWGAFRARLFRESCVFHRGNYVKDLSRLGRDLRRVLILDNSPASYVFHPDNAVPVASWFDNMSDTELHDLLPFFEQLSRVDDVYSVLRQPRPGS

cells [15] = format: functional, cell-based
cells [16] = format: functional, cell-based; remark: listed apart in the source
cells [17] = format: functional, cell-based; remark: listed apart in the source
cells [18] = format: functional, cell-based; remark: listed apart in the source
Cytochrome P450 3A4 = Cytochrome P450 3A4 (Homo sapiens, UniProt P08684); conditions: Potency;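 note: confirmatory qHTS run detecting inhibitors and substrates of CYP3A4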
Chain of Cytochrome P450 3A4 (P08684 whole entry): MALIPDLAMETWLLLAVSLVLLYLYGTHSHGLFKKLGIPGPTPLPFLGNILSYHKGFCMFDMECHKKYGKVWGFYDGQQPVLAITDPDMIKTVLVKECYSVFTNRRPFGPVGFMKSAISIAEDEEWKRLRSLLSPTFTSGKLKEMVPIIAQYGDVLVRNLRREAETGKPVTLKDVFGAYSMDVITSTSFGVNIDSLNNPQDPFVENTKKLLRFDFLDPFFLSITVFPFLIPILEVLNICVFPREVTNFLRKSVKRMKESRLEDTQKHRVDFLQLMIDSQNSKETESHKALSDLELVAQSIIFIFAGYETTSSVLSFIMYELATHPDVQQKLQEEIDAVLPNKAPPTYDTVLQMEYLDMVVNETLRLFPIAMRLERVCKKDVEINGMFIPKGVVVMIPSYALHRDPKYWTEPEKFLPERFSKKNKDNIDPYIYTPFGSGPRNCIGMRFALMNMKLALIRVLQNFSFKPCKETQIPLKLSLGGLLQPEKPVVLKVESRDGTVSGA

Large T antigen = Large T antigen (Simian virus 40, UniProt P03070); format: functional, Betapolyomavirus macacae;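 note: Confirmatory-stage PubChem screen for compounds that inhibit SV40 T antigen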
Chain of Large T antigen (P03070 whole entry): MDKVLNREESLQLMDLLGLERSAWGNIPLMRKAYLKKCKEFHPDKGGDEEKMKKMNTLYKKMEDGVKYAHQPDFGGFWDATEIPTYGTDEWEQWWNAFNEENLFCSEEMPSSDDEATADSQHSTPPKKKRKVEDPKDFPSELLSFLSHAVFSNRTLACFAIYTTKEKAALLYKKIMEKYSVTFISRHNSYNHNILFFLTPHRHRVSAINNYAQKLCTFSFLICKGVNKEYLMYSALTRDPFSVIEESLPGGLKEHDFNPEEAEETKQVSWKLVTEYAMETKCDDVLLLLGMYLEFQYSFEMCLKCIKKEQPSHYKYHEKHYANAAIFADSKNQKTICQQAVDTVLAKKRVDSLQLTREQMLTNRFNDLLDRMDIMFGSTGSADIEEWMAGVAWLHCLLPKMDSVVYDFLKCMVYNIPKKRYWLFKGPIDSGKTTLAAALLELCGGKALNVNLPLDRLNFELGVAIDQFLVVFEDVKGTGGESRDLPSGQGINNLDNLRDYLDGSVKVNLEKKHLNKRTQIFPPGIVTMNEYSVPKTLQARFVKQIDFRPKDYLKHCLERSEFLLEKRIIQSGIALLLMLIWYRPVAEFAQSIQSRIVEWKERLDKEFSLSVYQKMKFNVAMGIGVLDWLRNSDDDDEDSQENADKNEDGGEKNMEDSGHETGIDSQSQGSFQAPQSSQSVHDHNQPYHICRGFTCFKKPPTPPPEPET

Genome polyprotein = Genome polyprotein (dengue virus type 2, UniProt P29990); test: Dengue-2 NS5 methyltransferase inhibitors, primary screen, biochemical, confirmation dose response (AID 588689); format: functional
Chain of Genome polyprotein (P29990 2492-3391 limits assumed): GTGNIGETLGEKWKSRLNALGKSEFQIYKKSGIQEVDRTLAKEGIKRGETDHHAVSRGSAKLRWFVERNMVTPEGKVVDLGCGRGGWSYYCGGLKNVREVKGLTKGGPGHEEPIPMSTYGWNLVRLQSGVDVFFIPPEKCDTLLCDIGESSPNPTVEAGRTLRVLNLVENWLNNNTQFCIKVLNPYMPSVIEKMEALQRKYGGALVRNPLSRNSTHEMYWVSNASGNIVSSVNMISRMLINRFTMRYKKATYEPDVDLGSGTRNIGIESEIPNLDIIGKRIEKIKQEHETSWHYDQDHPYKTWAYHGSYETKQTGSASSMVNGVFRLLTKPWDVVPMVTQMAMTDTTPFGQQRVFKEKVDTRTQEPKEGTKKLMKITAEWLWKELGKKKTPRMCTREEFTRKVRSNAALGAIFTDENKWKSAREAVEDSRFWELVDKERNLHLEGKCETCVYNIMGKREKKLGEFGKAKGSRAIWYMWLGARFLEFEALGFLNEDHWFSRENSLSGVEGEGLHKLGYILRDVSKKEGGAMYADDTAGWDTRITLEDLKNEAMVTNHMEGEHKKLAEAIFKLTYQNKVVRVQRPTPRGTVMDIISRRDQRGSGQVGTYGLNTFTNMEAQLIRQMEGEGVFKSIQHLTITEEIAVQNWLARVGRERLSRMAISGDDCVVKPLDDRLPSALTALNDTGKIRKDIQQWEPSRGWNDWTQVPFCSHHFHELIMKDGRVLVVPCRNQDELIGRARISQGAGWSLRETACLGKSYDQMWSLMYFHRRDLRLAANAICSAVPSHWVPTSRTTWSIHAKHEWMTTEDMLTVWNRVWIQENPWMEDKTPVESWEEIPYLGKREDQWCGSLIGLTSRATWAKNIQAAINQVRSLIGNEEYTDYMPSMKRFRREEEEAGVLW

Structure (SMILES): COc1cc(OC)cc(C(=O)N[C@H](C(=O)NCCc2c[nH]c3ccccc23)C(C)C)c1
- AC50 [1]: 35.6 µM (active)
- AC50 [2]: 11 µM (active)
- AC50 [3]: 16.8 µM (active)

Structure (SMILES): CC(=O)Nc1sc2c(c1C(c1ccc(F)cc1)N1CCOCC1)CCCC2 (stereo unspecified)
- AC50 [4]: 32.8 µM (active)
- AC50 [1]: > 70 µM (inactive)
- AC50 [2]: 5.3 µM (active)
- AC50 [3]: 11.6 µM (active)

Structure (SMILES): CC(C)OC(=O)[C@H]1[C@H](c2ccc(Cl)cc2)[C@@](C#N)(C(N)=O)[C@@H]2C=CC(C(N)=O)=CN21
- IC50 (Fatty acid synthase [5]): 10.9 µM (active)
- IC50 (Fatty acid synthase [6]): 7.56 µM (active)

Structure (SMILES): Oc1ccc(-c2nc3ccc4ccccc4c3c3c2CCC3)cc1O
- AC50 [7]: 6.97 µM (active)

Structure (SMILES): CCC(CO)Oc1cc(NC(=O)c2ccccc2C)c2ncn(C(C)C)c2c1 (stereo unspecified)
- IC50 [8]: > 66.6 µM (inactive)
- IC50 [9]: 17.6 µM (active)

Structure (SMILES): O=C1CC(C(=O)N(CC2CCCO2)C(C(=O)NC2CCCCC2)c2ccncc2)CS1 (stereo unspecified)
- AC50 [4]: 37.8 µM (active)
- AC50 [1]: 30.2 µM (active)
- AC50 [2]: 7.23 µM (active)
- AC50 [3]: 6.85 µM (active)

Structure (SMILES): Cc1ccc(Cl)cc1Nc1nc(-c2sc(NC(=O)C(C)(C)C)nc2C)cs1
- IC50 [8]: > 66.6 µM (inactive)
- IC50 [9]: 9.1 µM (active)
- CC50 [10]: 21.4 µM (active)

Structure (SMILES): CCN(CC)S(=O)(=O)c1ccc(N2CCCC2)c(NC(=O)c2ccc([N+](=O)[O-])o2)c1
- IC50 (Vero [11]): > 25 µM (active)
- CC50 (Vero [12]): 17.8 µM (active)
- AC50 [13]: 3.18 µM (active)

Structure (SMILES): O=C(C[C@H]1C[C@H](C(=O)N2CCOCC2)[C@@]2(CCC3CCCC3)c3[nH]c4cc(-c5ccco5)ccc4c3CCN2C1=O)NCCN1CCOCC1
- IC50 (Fatty acid synthase [5]): 6.62 µM (active)
- IC50 (Fatty acid synthase [6]): 3.76 µM (active)

Structure (SMILES): COc1ccc(OC)c(NC(=O)CSc2ncnc3sc(C)cc23)c1
- IC50 [14]: 5.46 µM (active)

Structure (SMILES): CC(CNC(=O)C1CCCCC1C(=O)O)c1ccccc1 (stereo unspecified)
- IC50 (cells [15]): > 29.9 µM (inactive)
- EC50 (cells [16]): > 29.9 µM (inactive)

Structure (SMILES): CCCCCCCCCCCCCC(=O)NO
- AC50 [7]: 2.71 µM (active)

Structure (SMILES): COc1cccc(/C=N/NC(=O)CSc2ccccc2C)c1O
- EC50 (cells [17]): 30.4 µM (active)
- EC50 (cells [18]): 52.4 µM (active)

Structure (SMILES): O=C(NCCN1CCC(n2c(O)nc3ccccc32)CC1)c1cccc2c1-c1ccccc1C2=O
- IC50 [8]: > 66.6 µM (inactive)
- IC50 [9]: 17.9 µM (active)

Structure (SMILES): CCc1nc2c(OCc3ccc(Cl)cc3)cccn2c1N(C=O)Cc1ccc(OC)cc1
- IC50 (Fatty acid synthase [5]): 8.01 µM (active)
- IC50 (Fatty acid synthase [6]): 9.84 µM (active)

Structure (SMILES): CCCCCCN(C(=O)CCCCCN1C(=O)NC(c2ccc(-c3ccccc3)cc2)C(C(=O)OCc2ccccc2)=C1C)C(C(=O)NCCCC)c1ccccc1 (stereo unspecified)
- AC50 (Cytochrome P450 3A4): 2 µM (inconclusive)

Structure (SMILES): CC(=O)c1ccc(N2/C(=N/C(=O)COc3ccccc3)SC3CS(=O)(=O)CC32)cc1 (stereo unspecified)
- EC50 (cells [17]): > 350 µM (not active)
- EC50 (cells [18]): > 350 µM (not active)

Structure (SMILES): O=C(N/N=C(\c1ccccc1)c1cccnc1)c1cc(O)ccc1O
- IC50 (Large T antigen): 6.14 µM (active)

Structure (SMILES): N#Cc1c(N)sc(=S)c2c1CCCCC2
- IC50 (Large T antigen): 46.4 µM (active)
- IC50 (Genome polyprotein): > 100 µM (active)

Structure (SMILES): Nc1ccc(-c2ccc(N)c(O)c2)cc1O
- AC50 (Cytochrome P450 3A4): 31.6 µM (inconclusive)
